Experimental data as given in the NIST ThermoML archive (doi:10.1021/je300941v).

Legend:
[1] = xn = mol fraction of the nth substance listed; details: 101 kPa, Liquid, Vibrating tube method
[2] = 101.33 kPa, Liquid, Vibrating tube method

CCCC[N+]1(C)CCCC1.O=S(=O)([N-]S(=O)(=O)C(F)(F)F)C(F)(F)F + CN(C)C=O
mass density [kg/m3], [1]
Details	x1 = 0.0912	x1 = 0.1871	x1 = 0.2922	x1 = 0.3783	x1 = 0.4845	x1 = 0.5809	x1 = 0.6768	x1 = 0.7744	x1 = 0.8686
293.15 K	1074.98	1161.1	1224.53	1262.14	1298.31	1324.74	1346.86	1366.1	1381.39
298.15 K	1070.09	1156.23	1219.62	1257.32	1293.53	1319.99	1342.16	1361.38	1376.73
303.15 K	1065.22	1151.35	1214.77	1252.53	1288.82	1315.37	1337.55	1356.72	1372.14
308.15 K	1060.4	1146.5	1210	1247.8	1284.1	1310.7	1332.9	1352	1367.6
313.15 K	1055.43	1141.58	1205.17	1243.01	1279.29	1306.04	1328.25	1347.28	1363.02
318.15 K	1050.48	1136.63	1200.26	1238.22	1274.53	1301.32	1323.54	1342.91	1358.3
323.15 K	1045.36	1131.55	1195.32	1233.32	1269.65	1296.48	1318.83	1338.2	1353.61

CNC=O [N-methylformamide]
[2]
Details	mass density [kg/m3]
293.15 K	1003.59
298.15 K	999.19
303.15 K	994.75
308.15 K	990.33
313.15 K	985.78
318.15 K	981.23
323.15 K	976.57

CN(C)C=O [dimethylformamide]
[2]
Details	mass density [kg/m3]
293.15 K	948.79
298.15 K	943.87
303.15 K	938.98
308.15 K	934.07
313.15 K	929.11
318.15 K	924.04
323.15 K	918.91
